For two compounds, inhibition and IC50 results are on record in publication PMC11101759, “Inhibitors of dermatan sulfate epimerase 1 decreased accumulation of glycosaminoglycans in mucopolysaccharidosis type I fibroblasts” (Glycobiology, 2024).

Assay [1] deals with T1, HSepi; heparan sulfate glucuronyl C-5 epimerase (GLCE) (Homo sapiens, UniProt O94923).
T1 sequence (O94923 29-617): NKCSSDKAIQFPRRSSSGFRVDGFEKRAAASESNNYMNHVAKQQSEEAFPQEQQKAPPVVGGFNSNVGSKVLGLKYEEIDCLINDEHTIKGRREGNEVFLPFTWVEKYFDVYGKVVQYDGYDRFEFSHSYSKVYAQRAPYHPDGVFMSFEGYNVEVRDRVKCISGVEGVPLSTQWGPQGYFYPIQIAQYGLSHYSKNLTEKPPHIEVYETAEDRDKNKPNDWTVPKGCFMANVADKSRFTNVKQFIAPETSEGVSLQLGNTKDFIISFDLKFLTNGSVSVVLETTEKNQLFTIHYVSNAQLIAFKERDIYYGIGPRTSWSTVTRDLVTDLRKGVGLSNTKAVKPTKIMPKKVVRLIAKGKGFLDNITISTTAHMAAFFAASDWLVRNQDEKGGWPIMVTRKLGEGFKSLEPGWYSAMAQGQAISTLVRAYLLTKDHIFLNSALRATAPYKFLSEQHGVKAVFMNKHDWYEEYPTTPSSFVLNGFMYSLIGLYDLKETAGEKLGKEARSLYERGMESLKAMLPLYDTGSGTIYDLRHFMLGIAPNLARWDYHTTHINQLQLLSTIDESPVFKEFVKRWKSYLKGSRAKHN
As to the kind of experiment: HSepi epimerase activity assay, lysate of transfected […]HEK. It counts as biochemical. As to conditions: read-out: % inhibition at 1,000 μM.

For assay [2], the target named is T2, DS-epi1 (truncated form, amino acid 23–775-HIS) (Homo sapiens, UniProt Q9UL01).
T2 construct: gene DSE; truncated, residues 23-775, HIS tag
As to the kind of experiment: DS-epi1 epimerase activity assay. It counts as biochemical.

Turning to `CN(c1cc(-c2ccccc2)nc(SCc2ccc(C(=O)O)o2)n1)C1CCCCC1` [compound 3, inhibitor 3], the inhibition at 1000 µM in assay [1] turned out to be 69%. In assay [2], this compound had an IC50 of 12 µM.
The like results for `CCCN(C)c1cc(-c2ccccc2)nc(SCc2cccc(C(=O)O)c2)n1` [compound 11, inhibitor 11] were, in that order, 47% and 16 µM.

In general, inhibition refers to how much of the control response was suppressed. Broadly, the IC50 is the midpoint of a concentration-inhibition curve. A high value points to a need for much substance.
